From patent publication US9765054B2, “Histone deacetylase inhibitors and compositions and methods of use thereof” (CHDI Foundation, Inc., priority 2011, dated 2017) come the findings set out here.

The subject of assay [1] is cellular histone deacetylase enzymatic activity in Jurkat E6-1 cells. Kind of assay: Inhibition of cellular HDAC activity, Boc-Lys(Tfa)-AMC substrate, in Jurkat E6-1 cells. In kind it is cell-based. The note with it: Homo sapiens, Class IIa selective substrate Boc-Lys(Tfa)-AMC. The source says: The potency of Class IIa Histone Deacetylase (HDAC) inhibitors is quantified by measuring the cellular histone deacetylase enzymatic activity using the Class IIa selective substrate, Boc-Lys(Tfa)-AMC. After penetration in Jurkat E6-1 cells, the substrate is deacetylated to Boc-Lys-AMC. After cell lysis and cleavage by trypsin, the fluorophore AMC is released from the deacetylated substrate only. The fluoresence of the sample is directly related to the histone deacetylase activity in the sample.
Jurkat E6.1 Cell Culture and Plating.
Jurkat E6.1 cells are cultured according to standard cell culture protocols in Jurkat E6.1 Growth Media (RPMI without phenol red, 10% FBS, 10 mM HEPES, and 1 mM Sodium Pyruvate). Jurkat E6.1 cells are counted using a Coulter Counter and resuspended in Jurkat E6.1 growth media at a concentration of 75,000 cells/35 μl. 35 μl or 75,000 cells is seeded into Greiner microtitre assay plates. The plates are then incubated at 37° C. and 5% CO2 while other assay components are being prepared.
Serially Dilute HDAC Inhibitor Compounds.
Serial dilutions of the HDAC inhibitors and control reference compound (1-(5-(3-((4-(1,3,4-oxadiazol-2-yl)phenoxy)methyl)-1,2,4-oxadiazol-5-yl)thiophen-2-yl)-2,2,2-trifluoroethanone) are made by first resuspending the lyophilized compound to a final concentration of 10 mM in 100% DMSO. Stocks of 70 μl aliquots of the 10 mM compound in DMSO are prepared and stored at −20° C. From one stock aliquot of each compound to be tested and the reference compound, a 16-point serial dilution is prepared according to Table 7 using a 125 μl 16-channel Matrix multi-channel pipette.
2 μl (200×) of each diluted solution and each control (full activity: 100% DMSO alone or full inhibition 1 mM) is stamped into V-bottom polypropylene 384-well compound plates using either the Bravo, Janus, or […] 16-channel Matrix multi-channel pipette. Each well with the 200× compound solution is diluted 1:20 by the addition of 38 μl Jurkat assay buffer+DMSO (9.5% DMSO, RPMI without phenol red, 0.09% FBS, 9 mM Hepes, and 0.9 mM Sodium Pyruvate equilibrated to room temperature)
Prepare 5× (500 μM) Boc-Lys(Tfa)-AMC Substrate.
5× (500 μM) substrate is prepared just prior to the addition to the assay. The 5× substrate is prepared by diluting a 100 mM Boc-Lys(Tfa)-AMC in DMSO solution 1:200 by adding it drop-wise to Jurkat assay medium (RPMI without phenol red, 0.1% FBS, 10 mM Hepes, and 1 mM Sodium Pyruvate equilibrated to 37° C.) while vortexing at slow speed to prevent precipitation.
10 ml of 3× lysis buffer is prepared with 8.8 ml of 3× stock lysis buffer (50 mM Tris-HCl, pH 8.0, 137 mM NaCl, 2.7 mM KCl, 1 mM MgCl2, 1% Nonidet P40 Substitute equilibrated to room temperature) and 1.2 ml of 3 mg/ml Trypsin equilibrated to room temperature.
5 μl of each solution of 1:20 diluted compound from above is transferred to the Greiner microtitre assay plates with 75,000 cells/well using the Bravo. Cells are then incubated for 2 hours at 37° C. and 5% CO2. The assay is then started by adding 10 μl of 5× (500 μM) substrate to the assay plate using either the Bravo or 16-channel Matrix multi-channel pipette. The cells are then incubated for 3 hours at 37° C. and 5% CO2. Next, 25 μl of 3× lysis buffer is added to each well using either the 125 μl 16 channel pipette or the Bravo. The assay plate is then incubated overnight (15-16 hours) at 37° C. and 5% CO2. The following day, the plates are shaken on an orbital shaker for 1 minute at 900 rpm. Finally the top read fluorescence (Excitation: 355 nm, Emission: 460 nm) is measured using PerkinElmer EnVision.

Assay [2] concerns the target human catalytic domain HDAC4 protein (Homo sapiens, UniProt P56524, A743G/DEL730-739/DEL742-742). As to the kind of experiment: Inhibition of HDAC4 catalytic domain enzymatic activity, Boc-Lys(Tfa)-AMC substrate, fluorescence.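 Further: trypsin releases AMC from deacetylated substrate, fluorescence tracks enzyme activity, 15 min reaction at 37 °C, 100% activity defined by DMSO-only control.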 The note with it: Class IIa selective substrate Boc-Lys(Tfa)-AMC, read-out: Biochemical HDAC-4 IC50.

Take `CC(C)c1nc2ccc([C@H]3[C@H](C(=O)NO)[C@@H]3c3ccccc3)cc2o1` [Compound 39, (1R,2R,3R)—N-hydroxy-2-(2-isopropylbenzo[d]oxazol-6-yl)-3-phenylcyclopropanecarboxamide]: the results for the IC50 in assay [1] and in assay [2] were 220 nM and 20 nM, respectively.

As for `O=C(NO)[C@H]1[C@H](c2ccnc(C3CC3)c2)[C@H]1c1ccccc1F` [Compound 28c, (1S,2R,3R)-2-(2-Cyclopropylpyridin-4-yl)-3-(2-fluorophenyl)-N-hydroxycyclopropanecarboxamide], the IC50 stood at 530 nM in assay [1] and 40 nM in assay [2].

`CC(C)N1CCN(c2ccc([C@H]3[C@H](C(=O)NO)[C@@H]3c3ccccc3)cc2)CC1` (racemic) [Compound 56a, (1R*,2R*,3R*)—N-Hydroxy-2-(4-(4-isopropylpiperazin-1-yl)phenyl)-3-phenylcyclopropanecarboxamide]: the IC50 worked out at 760 nM in assay [1] and 90 nM in assay [2].

Turning to `O=C(NO)[C@@H]1[C@H](c2ccccc2)[C@H]1c1ccc(-c2nccc(C(F)(F)F)n2)cc1` (racemic) [Compound 50d, (1R*,2R*,3R*)-2-(4-(4-Trifluoromethylpyrimidin-2-yl)phenyl)-N-hydroxy-3-phenylcyclopropanecarboxamide], in assay [1], the IC50 was determined as 880 nM.

As to `O=C(NO)[C@@H]1[C@H](c2ccc(F)cc2)[C@H]1c1ccnc(C2CC2)c1` [Compound 28d, (1R,2R,3R)-2-(2-Cyclopropylpyridin-4-yl)-3-(4-fluorophenyl)-N-hydroxycyclopropanecarboxamide], the values for the 50% inhibitory concentration (IC50) in assay [1] and in assay [2] were 790 nM and 120 nM, respectively.

As to `CN1CCN(c2ccc([C@H]3[C@H](C(=O)NO)[C@@H]3c3ccccc3)cc2)CC1` (racemic) [Compound 56i, (1R*,2R*,3R*)—N-Hydroxy-2-(4-(4-methylpiperazin-1-yl)phenyl)-3-phenylcyclopropanecarboxamide], the 50% inhibitory concentration (IC50) in assay [1] came to 1310 nM; in assay [2] it was 140 nM.

As to `Cc1ccccc1[C@H]1[C@H](C(=O)NO)[C@@H]1c1ccccc1` (racemic) [Compound 18a, (1R*,2R*,3R*)—N-Hydroxy-2-phenyl-3-o-tolylcyclopropanecarboxamide], the IC50 in assay [1] was 13200 nM; in assay [2], 1720 nM.

In the case of `Cc1cnc(-c2ccc([C@H]3[C@H](C(=O)NO)[C@@H]3c3ccccc3)cc2)nc1` (racemic) [Compound 50k, (1R*,2R*,3R*)—N-Hydroxy-2-(4-(5-methylpyrimidin-2-yl)phenyl)-3-phenylcyclopropanecarboxamide], the 50% inhibitory concentration (IC50) in assay [1] came to 480 nM.

`O=C(NO)[C@@H]1[C@H](c2ccccc2)[C@H]1c1cccc(N2CCCn3nccc32)c1` [Compound 56h, (1R,2R,3R)-2-(3-(6,7-Dihydropyrazolo[1,5-a]pyrimidin-4(5H)-yl)phenyl)-N-hydroxy-3-phenylcyclopropanecarboxamide]: the IC50 in assay [1] was determined as 770 nM; in assay [2], 170 nM.

On to `O=C(NO)[C@H]1[C@H](c2ccccc2)[C@H]1c1ccccc1F` (racemic) [Compound 13, (1S*,2R*,3R)-2-(2-Fluorophenyl)-N-hydroxy-3-phenylcyclopropanecarboxamide], for which the 50% inhibitory concentration (IC50) is 7670 nM in assay [1] and 940 nM in assay [2].

Take `CC(C)N1CCN(c2ccc([C@H]3[C@H](C(=O)NO)[C@@H]3c3ccccc3F)cn2)CC1` [Compound 83, (1S,2R,3R)-2-(2-Fluorophenyl)-N-hydroxy-3-(6-(4-isopropylpiperazin-1-yl)pyridin-3-yl)cyclopropanecarboxamide]: the IC50 in assay [1] stood at 750 nM; in assay [2], 120 nM.

On to `Cc1ncc(-c2ccc([C@H]3[C@H](C(=O)NO)[C@@H]3c3ccccc3F)cc2)o1` [Compound 75b, (1S,2R,3R)-2-(2-Fluorophenyl)-N-hydroxy-3-(4-(2-methyloxazol-5-yl)phenyl)cyclopropanecarboxamide], for which the results for the IC50 in assay [1] and in assay [2] were 470 nM and 50 nM, respectively.

For the molecule `Cc1ccn(-c2ccc([C@H]3[C@H](C(=O)NO)[C@@H]3c3ccccc3)cc2)n1` [Compound 79, (1R,2R,3R)—N-Hydroxy-2-(4-(3-methyl-1H-pyrazol-1-yl)phenyl)-3-phenylcyclopropanecarboxamide], the IC50 in assay [1] was found to be 650 nM; in assay [2], 90 nM.

Regarding `O=C(NO)[C@@H]1[C@H](c2ccccc2)[C@H]1c1ccc2c(c1)OC(F)(F)O2` [Compound 28e, (1R,2R,3R)-2-(2,2-Difluorobenzo[d][1,3]dioxol-5-yl)-N-hydroxy-3-phenylcyclopropanecarboxamide], the figures for the IC50 in assay [1] and in assay [2] were 2030 nM and 120 nM, respectively.

Take `Cc1cnc(-c2cccc([C@H]3[C@H](C(=O)NO)[C@@H]3c3ccccc3)c2)nc1` [Compound 77, (1R,2R,3R)—N-Hydroxy-2-(3-(5-methylpyrimidin-2-yl)phenyl)-3-phenylcyclopropanecarboxamide]: the IC50 came out at 780 nM in assay [1] and 160 nM in assay [2].

For `O=C(NO)[C@@H]1[C@H](c2ccccc2)[C@H]1c1ccc(-c2cccc(OCc3ccccc3)c2)cc1` [Compound 54a, (1R,2R,3R)-2-(3′-(Benzyloxy)-[1,1′-biphenyl]-4-yl)-N-hydroxy-3-phenylcyclopropanecarboxamide], the values for the IC50 in assay [1] and in assay [2] were 8850 nM and 990 nM, respectively.

Consider `O=C(NO)[C@@H]1[C@H](c2ccccc2)[C@H]1c1ccccc1F` (racemic) [Compound 11b, (1R*,2R*,3R*)-2-(2-Fluorophenyl)-N-hydroxy-3-phenylcyclopropanecarboxamide], for which the half-inhibitory concentration (IC50) is 1830 nM in assay [1] and 320 nM in assay [2].

As for `O=C(NO)[C@H]1[C@H](c2ccccc2)[C@H]1C1CCCCC1` (racemic) [Compound 5, (1R*,2R*,3R*)-2-Cyclohexyl-N-hydroxy-3-phenylcyclopropanecarboxamide], the results for the IC50 in assay [1] and in assay [2] were 36900 nM and 6220 nM, respectively.

In the case of `O=C(NO)[C@@H]1[C@H](c2ccccc2)[C@H]1c1ccn2cc(C(F)(F)F)nc2c1` [Compound 109, (1R,2R,3R)—N-Hydroxy-2-phenyl-3-(2-(trifluoromethyl)imidazo[1,2-a]pyridin-7-yl)cyclopropanecarboxamide], the IC50 stood at 2500 nM in assay [1] and 230 nM in assay [2].

Consider `C[C@@]1(C(=O)NO)[C@H](c2ccccc2)[C@H]1c1ccc(-c2ncc(F)cn2)cc1` (racemic) [Compound 63, (1R*,2S*,3S*)-2-(4-(5-Fluoropyrimidin-2-yl)phenyl)-N-hydroxy-1-methyl-3-phenylcyclopropanecarboxamide], for which the figures for the half-inhibitory concentration (IC50) in assay [1] and in assay [2] were 1550 nM and 270 nM, respectively.

For `O=C(NO)[C@@H]1[C@H](c2ccccc2)[C@H]1c1cccc(N2CCN3CCCC3C2)c1` (relative stereo) [Compound 56f, (1R*,2R*,3R*)-2-(3-(Hexahydropyrrolo[1,2-a]pyrazin-2(1H)-yl)phenyl)-N-hydroxy-3-phenylcyclopropanecarboxamide], the concentration for half-maximal inhibition (IC50) in assay [1] was determined as 1850 nM; in assay [2], 630 nM.

`O=C(NO)[C@@H]1[C@H](c2ccccc2)[C@H]1c1ccc(-c2ncc(Cl)cn2)cc1` [Compound 50j, (1R,2R,3R)-2-(4-(5-Chloropyrimidin-2-yl)phenyl)-N-hydroxy-3-phenylcyclopropanecarboxamide]: the IC50 in assay [1] was found to be 420 nM.

Turning to `O=C(NO)[C@@H]1[C@H](c2ccccc2)[C@H]1c1ccc(-n2cccn2)cc1` (racemic) [Compound 65, (1R*,2R*,3R*)-2-(4-(1H-pyrazol-1-yl)phenyl)-N-hydroxy-3-phenylcyclopropanecarboxamide], the IC50 stood at 970 nM in assay [1] and 90 nM in assay [2].
